Data from patent publication US20120016019A1, “PHARMACEUTICAL COMPOSITION FOR TREATING OR PREVENTING CANCER” (priority 2010, published 2012).
“And” between values parts separate entries of the source, which are not always exact repeats. Equal entries are not always repeated.

Columns and labels:
PC-3 = assay: Cell counts, PC-3; assay type: cell-based, human; details: for cell counts: single wells
Procedure: (§1) Cells were harvested using Trypsin-EDTA at the designated time points. […] Two 48-well plates were used per cell line, and they were measured at 0 h, 12 h, 24 h, 48 h, 4 d and 7 d, respectively.
In the 1st plate, cells were treated with the composition according to the invention and medium was changed at 0 h and 3 d.
(§2) In the 2nd plate, 7 d of the 1st week (LC-50) is the same as 0 h of the 2nd week (recovery).
At 0 h of the 2nd week, medium was exchanged with untreated medium for the remainder of the experiment. The untreated controls were not measured in the 2nd week (recovery) due to overconfluence by the end of the 1st week.

HCC 1419 [1] = assay: XTT cell viability assay, HCC 1419; details: for The absorbance, Mean value / The absorbance / The absorbance, group - Blank: XTT 500 nm; for The absorbance: single wells
Procedure: Cancer cell lines HCC 1419, MCF-7, MDA-MB-468, SKBR3, PC3, HT1299, Saos-2, C-6, AsPc, MDA-MB-231, RKO, HeLa and TT, and normal cell lines HME 50 HT, BJ and CCD-1074sk were tested for changes in metabolism (XTT assay) and cell death (cell counts).
Cells were plated into 48-well Corning CellBind™ plates at densities of 20,000 cells for normal cells and 10,000˜20,000 cells for cancer cells. 24 to 48 h after plating, cells were treated with the composition according to the invention at concentrations of 4.5e-2M. The first time point treated with the composition of the invention is 0 h. At 3 days after the first treatment with the composition of the invention, medium was changed and the composition of the invention at the same concentrations were added to the cultured cells.
The XTT assay is an accepted analysis technique for viability and cytotoxicity of anticancer drugs or other pharmaceutical compositions. Cells were seeded in a 96-well tissue culture plate at a density of 10,000 cells for normal cells and 5,000 cells for cancer cells. After incubation period, the formazan dye formed was quantitated using an ELISA reader. The optimal wavelength used in experiments was 500 nm, and it was measured at 0 h, 12 h, 24 h, 48 h, 4 d and 7 d, respectively. The obtained values were generated using the software SoftMax Pro 4.8.
The cell viability was calculated according to the manufacturer's instructions as follows (the term “blank” means XTT in medium only):
Cellular cytotoxicity was calculated according to the manufacturer's instructions as follows: […]

SKBR3 = assay: Cell counts, SKBR3; assay type: cell-based; details: for cell counts: single wells
Procedure: as §1
(§3) In the 1st plate, cells were treated with the composition according to the invention and medium was changed at 0 h and 3 d. […] As a result, LC-50 curves were generated in the 1st week.
as §2
(§4) At 0 h of the 2nd week, medium was exchanged with untreated medium for the remainder of the experiment. The untreated controls were not measured in the 2nd week (recovery) due to overconfluence by the end of the 1st week. As a result, Recovery curves were generated in the 2nd week.

C-6 = assay: Cell counts, C-6; assay type: cell-based, rat
Procedure: Cells were harvested using Trypsin-EDTA at the designated time points. When total cells for each well were counted with a Beckman-Coulter Z1 Particle Characterization Unit, the vertical axis represents 1/20 of cell number in the Figures attached to the specification, while when counted with a Beckman-Coulter Vi-Cell, the vertical axis represents cell number in the Figures. Two 48-well plates were used per cell line, and they were measured at 0 h, 12 h, 24 h, 48 h, 4 d and 7 d, respectively.
as §3, §2, §4
C-6 is glioblastoma cells.

HCC 1419 [2] = assay: Cell counts, HCC 1419; assay type: cell-based; details: for cell counts: single wells
Procedure: Cells were plated into 48-well Corning CellBind™ plates at densities of 20,000 cells for normal cells and 10,000˜20,000 cells for cancer cells. […] The first time point treated with the composition of the invention is 0 h.
as §1, §3, §2, §4

[3] = HCC 1419, 1st week (LC50), 24 h
[4] = HCC 1419, 1st week (LC50), 48 h
[5] = HCC 1419, 2nd week (recovery), 0 h
[6] = HCC 1419, 2nd week (recovery), 48 h
[7] = HCC 1419, 2nd week (recovery), 4 d

CC(=O)O[C@H]1C(=O)[C@@]2(C)[C@H]([C@H](OC(=O)c3ccccc3)[C@]3(O)C[C@H](OC(=O)[C@H](O)[C@@H](NC(=O)c4ccccc4)c4ccccc4)C(C)=C1C3(C)C)[C@]1(OC(C)=O)CO[C@@H]1C[C@@H]2O [Taxol]
killing of PC-3 cells (PC-3): relatively resistant to Taxol | cell counts, Mean value (PC-3; 1st week (LC50), 0 h): 6580 | cell counts, Mean value (PC-3; 1st week (LC50), 12 h): 5462 | cell counts (PC-3; 1st week (LC50), 12 h): 4805 and 5805 and 5775 | cell counts, Mean value (PC-3; 1st week (LC50), 24 h): 5205 | cell counts (PC-3; 1st week (LC50), 24 h): 4360 and 4820 and 6435 | cell counts, Mean value (PC-3; 1st week (LC50), 48 h): 2013 | cell counts (PC-3; 1st week (LC50), 48 h): 1821 and 1969 | cell counts, Mean value (PC-3; 1st week (LC50), 4 d): 1029 | cell counts (PC-3; 1st week (LC50), 4 d): 861 and 975 and 1250 | cell counts, Mean value (PC-3; 2nd week (recovery), 0 h): 514 | cell counts (PC-3; 2nd week (recovery), 0 h): 392 and 389 and 760 | cell counts, Mean value (PC-3; 2nd week (recovery), 24 h): 305 | cell counts (PC-3; 2nd week (recovery), 24 h): 269 and 328 and 318 | cell counts, Mean value (PC-3; 2nd week (recovery), 48 h): 350 | cell counts (PC-3; 2nd week (recovery), 48 h): 369 and 303 and 378 | cell counts, Mean value (PC-3; 2nd week (recovery), 4 d): 1324 | cell counts (PC-3; 2nd week (recovery), 4 d): 1574 and 1376 and 1023 | cell counts, Mean value (PC-3; 2nd week (recovery), 7 d): 483 | The absorbance, Mean value (HCC 1419 [1]; HCC 1419, 1st week (LC50), 0 h): 2.5924 | The absorbance (HCC 1419 [1]; HCC 1419, 1st week (LC50), 0 h): 2.5534 and 2.6558 and 2.5679 | The absorbance, group - Blank (HCC 1419 [1]; HCC 1419, 1st week (LC50), 12 h): 2.0317 | The absorbance, Mean value (HCC 1419 [1]; [3]): 2.8401 | The absorbance, group - Blank (HCC 1419 [1]; [3]): 2.5035 | The absorbance (HCC 1419 [1]; [3]): 2.9427 and 2.856 and 2.7216 | The absorbance, Mean value (HCC 1419 [1]; [4]): 3.4706 | The absorbance, group - Blank (HCC 1419 [1]; [4]): 3.1340 | The absorbance (HCC 1419 [1]; [4]): 3.7945 and 2.9086 and 3.7087 | The absorbance, Mean value (HCC 1419 [1]; HCC 1419, 1st week (LC50), 4 d): 2.6666 | The absorbance (HCC 1419 [1]; HCC 1419, 1st week (LC50), 4 d): 2.6667 and 2.7014 and 2.6316 | The absorbance, Mean value (HCC 1419 [1]; HCC 1419, 1st week (LC50), 7 d): 2.5386 | The absorbance (HCC 1419 [1]; HCC 1419, 1st week (LC50), 7 d): 2.6877 and 2.5421 | The absorbance, Mean value (HCC 1419 [1]; [5]): 2.4911 | The absorbance (HCC 1419 [1]; [5]): 2.7348 | The absorbance (HCC 1419 [1]; HCC 1419, 2nd week (recovery), 24 h): 2.4388 | The absorbance, Mean value (HCC 1419 [1]; [6]): 2.6525 | The absorbance, group - Blank (HCC 1419 [1]; [6]): 2.4436 | The absorbance (HCC 1419 [1]; [6]): 2.6611 and 2.6375 and 2.6588 | The absorbance, Mean value (HCC 1419 [1]; [7]): 2.6058 | The absorbance (HCC 1419 [1]; [7]): 2.7024 and 2.5033 and 2.6116 | The viability (HCC 1419 [1]; HCC 1419, XTT, 1/100 of %, 2nd week (recovery), 48 h): 0.8937 | The viability (HCC 1419 [1]; human, 12 h, 220 nM): 0.7658 | The viability (HCC 1419 [1]; human, 48 h, 220 nM): 1.1461 | The viability (HCC 1419 [1]; human, 7 d, 220 nM): 0.9883 | cell counts, Mean value (SKBR3; 1st week (LC50), 0 h): 2667 | cell counts (SKBR3; 1st week (LC50), 0 h): 2000 and 4000 | cell counts, Mean value (SKBR3; 1st week (LC50), 24 h): 9333 | cell counts (SKBR3; 1st week (LC50), 24 h): 6000 and 11000 | cell counts, Mean value (SKBR3; 1st week (LC50), 48 h): 4000 | cell counts (SKBR3; 1st week (LC50), 48 h): 4000 | cell counts, Mean value (SKBR3; 1st week (LC50), 4 d): 1000 | cell counts (SKBR3; 1st week (LC50), 4 d): 1000 | cell counts, Mean value (SKBR3; 1st week (LC50), 7 d): 3000 | cell counts, Mean value (SKBR3; 2nd week (recovery), 0 h): 70667 | cell counts (SKBR3; 2nd week (recovery), 0 h): 60000 and 80000 and 72000 | cell counts, Mean value (SKBR3; 2nd week (recovery), 24 h): 49333 | cell counts (SKBR3; 2nd week (recovery), 24 h): 32000 and 60000 and 56000 | cell counts, Mean value (SKBR3; 2nd week (recovery), 48 h): 44000 | cell counts (SKBR3; 2nd week (recovery), 48 h): 56000 and 36000 and 40000 | cell counts, Mean value (SKBR3; 2nd week (recovery), 4 d): 17250 | cell counts (SKBR3; 2nd week (recovery), 4 d): 15000 and 12500 and 22000 | cell counts, Mean value (SKBR3; 2nd week (recovery), 7 d): 10000 | cell counts (SKBR3; 2nd week (recovery), 7 d): 10000 and 12000 and 8000 | cell counts (C-6; 1st week (LC50), 0 h): 6111 and 7077 and 4897 | cell counts, Mean value (C-6; 1st week (LC50), 0 h): 6028 | cell counts (C-6; 1st week (LC50), 12 h): 3726 and 4240 | cell counts, Mean value (C-6; 1st week (LC50), 12 h): 4469 | cell counts (C-6; 1st week (LC50), 24 h): 3895 and 3853 and 3340 | cell counts, Mean value (C-6; 1st week (LC50), 24 h): 3696 | cell counts (C-6; 1st week (LC50), 48 h): 6630 and 6722 | cell counts, Mean value (C-6; 1st week (LC50), 48 h): 6243 | cell counts (C-6; 1st week (LC50), 4 d): 6026 and 6751 and 6905 | cell counts, Mean value (C-6; 1st week (LC50), 4 d): 6561 | cell counts, Mean value (C-6; 1st week (LC50), 7 d): 4450 | cell counts (C-6; 2nd week (recovery), 0 h): 2984 and 3948 and 4207 | cell counts, Mean value (C-6; 2nd week (recovery), 0 h): 3713 | cell counts (C-6; 2nd week (recovery), 24 h): 3392 and 4285 and 3984 | cell counts, Mean value (C-6; 2nd week (recovery), 24 h): 3887 | cell counts (C-6; 2nd week (recovery), 48 h): 3166 and 3930 | cell counts, Mean value (C-6; 2nd week (recovery), 48 h): 4184 | cell counts (C-6; 2nd week (recovery), 4 d): 4825 and 3184 | cell counts, Mean value (C-6; 2nd week (recovery), 4 d): 4031 | cell counts (C-6; 2nd week (recovery), 7 d): 3989 and 4316 and 3634 | cell counts, Mean value (C-6; 2nd week (recovery), 7 d): 3980 | response of the cells (C-6; composition: after 4 days of exposure): resistance to Taxol | growth pattern of the cells in the well (microscopy) (HCC 1419 [2]): growing in a diffuse, spreading pattern over the whole well | number of cancer cells (course) (HCC 1419 [2]; 1st week (LC50) and 2nd week (recovery)): did not decreased any more and was maintained | cell counts, Mean value (HCC 1419 [2]; 1st week (LC50), 0 h): 3156 | cell counts (HCC 1419 [2]; 1st week (LC50), 0 h): 3055 and 2626 and 3788 | cell counts, Mean value (HCC 1419 [2]; 1st week (LC50), 12 h): 3479 | cell counts (HCC 1419 [2]; 1st week (LC50), 12 h): 3434 and 3451 and 3553 | cell counts, Mean value (HCC 1419 [2]; 1st week (LC50), 24 h): 3036 | cell counts (HCC 1419 [2]; 1st week (LC50), 24 h): 2957 and 3488 and 2664 | cell counts, Mean value (HCC 1419 [2]; 1st week (LC50), 48 h): 2978 | cell counts (HCC 1419 [2]; 1st week (LC50), 48 h): 2232 and 3502 and 3199 | cell counts, Mean value (HCC 1419 [2]; 1st week (LC50), 4 d): 2544 | cell counts (HCC 1419 [2]; 1st week (LC50), 4 d): 1716 and 2940 and 2975 | cell counts, Mean value (HCC 1419 [2]; 1st week (LC50), 7 d): 1741 | cell counts (HCC 1419 [2]; 1st week (LC50), 7 d): 1718 and 1710 and 1794 | cell counts, Mean value (HCC 1419 [2]; 2nd week (recovery), 0 h): 8878 | cell counts (HCC 1419 [2]; 2nd week (recovery), 0 h): 8472 and 8522 and 9639 | cell counts (HCC 1419 [2]; 2nd week (recovery), 24 h): 7966 | cell counts (HCC 1419 [2]; 2nd week (recovery), 48 h): 4901 | cell counts (HCC 1419 [2]; 2nd week (recovery), 7 d): 7316 and 3792
